Where two headings read alike, the source gives them in different places.
Key:
[1] = tested on: HMLER CD24^low/CD44^high cells; test: Cell viability assay (CellTiter-Blue, 72 h) in HMLER breast cancer stem cell model; format: cell-based, human; conditions: for IC50: Homo sapiens; for Selectivity: ratio of the IC50 ID2 to the IC50 HMLER
Procedure: (§1) The compounds have been evaluated against a model of breast cancer stem cells (HMLER) and matching non-stem cells (namely ID2 of HIMLER CD24^high/CD4^high/low), and in MCF10A cells (normal breast cell line).
(§2) Each IC50 value was determined in biological triplicate (three independent biological experiments), and each triplicate was determined in at least technical duplicate.
HMLER cells naturally repressing E-cadherin, obtained from human mammary epithelial cells infected with a retrovirus carrying hTERT, SV40, and the oncogenic allele H-rasV12, were cultured in DMEM/F12 (Gibco, 31331-028) supplemented with 10% FBS, 10 μg/mL insulin (Sigma-Aldrich, 10516), 0.5 ug/mL hydrocortisone (Sigma-Aldrich, H0888), and 0.5 ug/mL puromycin (Life Technologies, A11138-02); cells were a generous gift from Alain Puisieux (INSERM). All cells were incubated at 37° C. with 5% CO2. HMLER CD44low/high cells stained with CD24-APC and CD44-PE antibodies were sorted by FACS using an Aria Ilu (BD Biosciences) to obtain isolated CD24^low/CD44^high and CD24^high/CD44^low cell populations. HMLER CD24^low/CD44^high cells were supplemented with 10 ng/ml human epidermal growth factor (EGF, Miltenyi Biotec, 130-093-750, 100 ng/ml), while HMLER CD24^high/CD44^low cells were grown without EGF. MCF10A cells (ATCC, CRL-10317) were cultured in DMEM/F12 supplemented with 10% horse serum (Invitrogen, 16050-122), 10 μg/mL insulin, 10 ng/ml EGF, 0.5 μg/mL hydrocortisone, 100 ng/ml cholera toxin (Sigma-Aldrich, C8052), and 1× PenStrep (Invitrogen, 15070-063).
The cell viability assay was carried out by plating 1000 cells per well in 96-well plates. The cells were treated for 72 h in a range between 12 nM and 50 µM or 0.3 nM and 4 μM using serial dilutions following the manufacturer's protocol. Very briefly, the CellTiter-Blue reagent (G8081, Promega) was added to the wells after 72 h of treatment, and cells were incubated for 3 h before fluorescence intensities (λex=560/20 nm; λem=590/10 nm) were recorded using a PerkinElmer Wallac 1420 Victor2 microplate reader. The IC50 cell viability curves were plotted using the Prism 8 software for the synthesized compounds against HMLER CD24^low/CD44^high and the isogenic cell line HMLER CD24^high/CD44^low.
All derivatives were assessed for their antiproliferative activity and selectivity toward a well-established model of mesenchymal CSCs (HMLER CD24^low/CD44^high) together with their epithelial counterparts (HMLER CD24^high/CD44^low) lacking CSC properties. […] Specifically, compounds 6, 8, and 9 were identified to be particularly interesting in this context, with IC50 values of 30, 3, and 9 nM, respectively, together with their outstanding selectivities (Sls between 20.0 and 90.0).

[2] = tested on: ID2 (HMLER CD24^high/CD44^low) cells; test: Cell viability assay (CellTiter-Blue, 72 h) in ID2 matching non-stem cells; format: cell-based; conditions: Homo sapiens, read-out: ID2 cancer cells (IC50, μM)
Procedure: as §1
Each IC50 value was determined in biological triplicate (three independent biological experiments), and each triplicate was determined in at least technical duplicate. […]
(§3) The cell viability assay was carried out by plating 1000 cells per well in 96-well plates. […] Very briefly, the CellTiter-Blue reagent (G8081, Promega) was added to the wells after 72 h of treatment, and cells were incubated for 3 h before fluorescence intensities (λex=560/20 nm; λem=590/10 nm) were recorded using a PerkinElmer Wallac 1420 Victor2 microplate reader. […]
All derivatives were assessed for their antiproliferative activity and selectivity toward a well-established model of mesenchymal CSCs (HMLER CD24^low/CD44^high) together with their epithelial counterparts (HMLER CD24^high/CD44^low) lacking CSC properties. […]

MCF10A cells = test: Cell viability assay (CellTiter-Blue, 72 h) in MCF10A normal breast cell line; format: cell-based; conditions: Homo sapiens, MCF-10A, read-out: MCF10A (IC50, μM)
Procedure: as §1, §2
HMLER cells naturally repressing E-cadherin, obtained from human mammary epithelial cells infected with a retrovirus carrying hTERT, SV40, and the oncogenic allele H-rasV12, were cultured in DMEM/F12 (Gibco, 31331-028) supplemented with 10% FBS, 10 μg/mL insulin (Sigma-Aldrich, 10516), 0.5 ug/mL hydrocortisone (Sigma-Aldrich, H0888), and 0.5 ug/mL puromycin (Life Technologies, A11138-02); cells were a generous gift from Alain Puisieux (INSERM). All cells were incubated at 37° C. with 5% CO2. […]
as §3

[3] = cell viability, 72 h treatment, CellTiter-Blue, biological triplicate, read-out: HMLER cancer cells (IC50)
[4] = 72 h, read-out: HMLER cancer cells (IC50, μM)

Row | Structure (SMILES) | Selectivity [1] | also measured
1 | CCCN(CCC)[C@H]1C=C[C@]2(O[C@H]([C@@H](CC)C(=O)[C@@H](C)[C@@H](O)[C@H](C)[C@@H]3O[C@@H]([C@@H](CC)C(=O)[O-])CC[C@@H]3C)[C@@H](C)C[C@H]2C)O[C@@]12CC[C@@](C)([C@H]1CC[C@](O)(CC)[C@H](C)O1)O2.[Na+] [Compound 9] | 20.0 | IC50 [1, 3]: 0.009 ± 0.0002 µM
2 | CCCCN(CCCC)[C@H]1C=C[C@]2(O[C@H]([C@@H](CC)C(=O)[C@@H](C)[C@@H](O)[C@H](C)[C@@H]3O[C@@H]([C@@H](CC)C(=O)[O-])CC[C@@H]3C)[C@@H](C)C[C@H]2C)O[C@@]12CC[C@@](C)([C@H]1CC[C@](O)(CC)[C@H](C)O1)O2.[Na+] [Compound 10] | 7.6 | 
3 | CC[C@@H](C(=O)[C@@H](C)[C@@H](O)[C@H](C)[C@@H]1O[C@@H]([C@@H](CC)C(=O)[O-])CC[C@@H]1C)[C@H]1O[C@]2(C=C[C@H](NCc3ccccc3)[C@]3(CC[C@@](C)([C@H]4CC[C@](O)(CC)[C@H](C)O4)O3)O2)[C@H](C)C[C@@H]1C.[Na+] [Compound 14] | 6.2 | 
4 | CCCCCN[C@H]1C=C[C@]2(O[C@H]([C@@H](CC)C(=O)[C@@H](C)[C@@H](O)[C@H](C)[C@@H]3O[C@@H]([C@@H](CC)C(=O)[O-])CC[C@@H]3C)[C@@H](C)C[C@H]2C)O[C@@]12CC[C@@](C)([C@H]1CC[C@](O)(CC)[C@H](C)O1)O2.[Na+] [Compound 5] | 10.8 | 
5 | CC[C@@H](C(=O)[C@@H](C)[C@@H](O)[C@H](C)[C@@H]1O[C@@H]([C@@H](CC)C(=O)[O-])CC[C@@H]1C)[C@H]1O[C@]2(C=C[C@H](N(CC)CC)[C@]3(CC[C@@](C)([C@H]4CC[C@](O)(CC)[C@H](C)O4)O3)O2)[C@H](C)C[C@@H]1C.[Na+] [Compound 8] | 90.0 | IC50 [1, 3]: 0.003 ± 0.0005 µM
6 | C#CCN(CC#C)[C@H]1C=C[C@]2(O[C@H]([C@@H](CC)C(=O)[C@@H](C)[C@@H](O)[C@H](C)[C@@H]3O[C@@H]([C@@H](CC)C(=O)O)CC[C@@H]3C)[C@@H](C)C[C@H]2C)O[C@@]12CC[C@@](C)([C@H]1CC[C@](O)(CC)[C@H](C)O1)O2 [Compound 19, C20-epi-dipropargyloaminosalinomycin] | 3.5 | IC50 [1, 4]: 2.4 µM; IC50 [2]: 8.43 µM
7 | CC[C@@H](C(=O)[C@@H](C)[C@@H](O)[C@H](C)[C@@H]1O[C@@H]([C@@H](CC)C(=O)[O-])CC[C@@H]1C)[C@H]1O[C@]2(C=C[C@H](NCC(C)C)[C@]3(CC[C@@](C)([C@H]4CC[C@](O)(CC)[C@H](C)O4)O3)O2)[C@H](C)C[C@@H]1C.[Na+] [Compound 4] | 11.0 | 
8 | CC[C@@H](C(=O)[C@@H](C)[C@@H](O)[C@H](C)[C@@H]1O[C@@H]([C@@H](CC)C(=O)[O-])CC[C@@H]1C)[C@H]1O[C@]2(C=C[C@H](NCc3ccc(O)cc3)[C@]3(CC[C@@](C)([C@H]4CC[C@](O)(CC)[C@H](C)O4)O3)O2)[C@H](C)C[C@@H]1C.[Na+] [Compound 15] | 12.4 | 
9 | CC[C@@H](C(=O)[C@@H](C)[C@@H](O)[C@H](C)[C@@H]1O[C@@H]([C@@H](CC)C(=O)[O-])CC[C@@H]1C)[C@H]1O[C@]2(C=C[C@H](NCc3ccc(Cl)cc3)[C@]3(CC[C@@](C)([C@H]4CC[C@](O)(CC)[C@H](C)O4)O3)O2)[C@H](C)C[C@@H]1C.[Na+] [Compound 18] | 11.0 | 
10 | CCCN[C@H]1C=C[C@]2(O[C@H]([C@@H](CC)C(=O)[C@@H](C)[C@@H](O)[C@H](C)[C@@H]3O[C@@H]([C@@H](CC)C(=O)[O-])CC[C@@H]3C)[C@@H](C)C[C@H]2C)O[C@@]12CC[C@@](C)([C@H]1CC[C@](O)(CC)[C@H](C)O1)O2.[Na+] [Compound 2] | 10.1 | 
11 | CCCCCCCCCCCCN[C@H]1C=C[C@]2(O[C@H]([C@@H](CC)C(=O)[C@@H](C)[C@@H](O)[C@H](C)[C@@H]3O[C@@H]([C@@H](CC)C(=O)[O-])CC[C@@H]3C)[C@@H](C)C[C@H]2C)O[C@@]12CC[C@@](C)([C@H]1CC[C@](O)(CC)[C@H](C)O1)O2.[Na+] [Compound 7] | 4.1 | 
12 | CC[C@@H](C(=O)[C@@H](C)[C@@H](O)[C@H](C)[C@@H]1O[C@@H]([C@@H](CC)C(=O)[O-])CC[C@@H]1C)[C@H]1O[C@]2(C=C[C@H](NCc3ccc(F)cc3)[C@]3(CC[C@@](C)([C@H]4CC[C@](O)(CC)[C@H](C)O4)O3)O2)[C@H](C)C[C@@H]1C.[Na+] [Compound 17] | 10.2 | 
13 | CC[C@@H](C(=O)[C@@H](C)[C@@H](O)[C@H](C)[C@@H]1O[C@@H]([C@@H](CC)C(=O)O)CC[C@@H]1C)[C@H]1O[C@]2(C=C[C@@H](O)[C@]3(CC[C@@](C)([C@H]4CC[C@](O)(CC)[C@H](C)O4)O3)O2)[C@H](C)C[C@@H]1C [Salinomycin] | 3.1 | IC50 [1, 4]: 1.39 ± 0.1 µM; IC50 [2]: 4.36 ± 0.5 µM; IC50 (MCF10A cells): 1.13 ± 0.14 µM
14 | CCCCCCN(CCCCCC)[C@H]1C=C[C@]2(O[C@H]([C@@H](CC)C(=O)[C@@H](C)[C@@H](O)[C@H](C)[C@@H]3O[C@@H]([C@@H](CC)C(=O)[O-])CC[C@@H]3C)[C@@H](C)C[C@H]2C)O[C@@]12CC[C@@](C)([C@H]1CC[C@](O)(CC)[C@H](C)O1)O2.[Na+] [Compound 12] | 13.3 | 
15 | CC[C@@H](C(=O)[C@@H](C)[C@@H](O)[C@H](C)[C@@H]1O[C@@H]([C@@H](CC)C(=O)[O-])CC[C@@H]1C)[C@H]1O[C@]2(C=C[C@H](NCc3ccc(C)cc3)[C@]3(CC[C@@](C)([C@H]4CC[C@](O)(CC)[C@H](C)O4)O3)O2)[C@H](C)C[C@@H]1C.[Na+] [Compound 16] | 12.7 | 
16 | CCN[C@H]1C=C[C@]2(O[C@H]([C@@H](CC)C(=O)[C@@H](C)[C@@H](O)[C@H](C)[C@@H]3O[C@@H]([C@@H](CC)C(=O)[O-])CC[C@@H]3C)[C@@H](C)C[C@H]2C)O[C@@]12CC[C@@](C)([C@H]1CC[C@](O)(CC)[C@H](C)O1)O2.[Na+] [Compound 1] | 6.1 | 
17 | CCCCCCN[C@H]1C=C[C@]2(O[C@H]([C@@H](CC)C(=O)[C@@H](C)[C@@H](O)[C@H](C)[C@@H]3O[C@@H]([C@@H](CC)C(=O)[O-])CC[C@@H]3C)[C@@H](C)C[C@H]2C)O[C@@]12CC[C@@](C)([C@H]1CC[C@](O)(CC)[C@H](C)O1)O2.[Na+] [Compound 6] | 24.7 | IC50 [1, 3]: 0.03 ± 0.01 µM
18 | CCCCN[C@H]1C=C[C@]2(O[C@H]([C@@H](CC)C(=O)[C@@H](C)[C@@H](O)[C@H](C)[C@@H]3O[C@@H]([C@@H](CC)C(=O)[O-])CC[C@@H]3C)[C@@H](C)C[C@H]2C)O[C@@]12CC[C@@](C)([C@H]1CC[C@](O)(CC)[C@H](C)O1)O2.[Na+] [Compound 3] | 15.2 | 
19 | CCCCCN(CCCCC)[C@H]1C=C[C@]2(O[C@H]([C@@H](CC)C(=O)[C@@H](C)[C@@H](O)[C@H](C)[C@@H]3O[C@@H]([C@@H](CC)C(=O)[O-])CC[C@@H]3C)[C@@H](C)C[C@H]2C)O[C@@]12CC[C@@](C)([C@H]1CC[C@](O)(CC)[C@H](C)O1)O2.[Na+] [Compound 11] | 7.7 | 
20 | CCCCCCCCCCCCN(CCCCCCCCCCCC)[C@H]1C=C[C@]2(O[C@H]([C@@H](CC)C(=O)[C@@H](C)[C@@H](O)[C@H](C)[C@@H]3O[C@@H]([C@@H](CC)C(=O)[O-])CC[C@@H]3C)[C@@H](C)C[C@H]2C)O[C@@]12CC[C@@](C)([C@H]1CC[C@](O)(CC)[C@H](C)O1)O2.[Na+] [Compound 13] | 5.2 | 
